# In ChEMBL document CHEMBL2069255, “Synthesis and DNA binding properties of 1-(3-aminopropyl)-imidazole-containing triamide f-Im*PyIm: a novel diamino polyamide designed to target 5'-ACGCGT-3'” (Bioorg Med Chem Lett, 2012):
# The source made the active and inactive calls. No cut-off for these calls is given here.
# Tests used:
# Assay type in all cases: nucleic-acid assay
# [1] = system: Nucleic Acid; test: Binding affinity to AAATTT DNA by SPR assay
# [2] = system: Nucleic Acid; test: Binding affinity to ACGCGT DNA assessed as change in melting temperature by thermal denaturation assay
# [3] = system: Nucleic Acid; test: Binding affinity to AAATTT DNA assessed as change in melting temperature by thermal denaturation assay
# [4] = system: Nucleic Acid; test: Binding affinity to ACGCGT DNA by SPR assay
# [5] = system: Nucleic Acid; test: Binding affinity to ACGCGT DNA by ITC assay
# [6] = system: Nucleic Acid; test: Binding affinity to ACATGT DNA by SPR assay
# [7] = system: Nucleic Acid; test: Binding affinity to ATGCAT DNA assessed as change in melting temperature by thermal denaturation assay
Ke [1],ΔTm [2] [°C],ΔTm [3] [°C],Ke [4],Activity [5],Ke [6] [×10⁶ /M],ΔTm [7] [°C],SMILES
5.3 ×10⁴ /M,7.8,1,1.9 ×10⁸ /M,Active,,,CN(C)CCNC(=O)c1nc(NC(=O)c2cc(NC(=O)c3nc(NC=O)cn3C)cn2C)cn1C
2.2 ×10⁶ /M,> 20,11,2.3 ×10⁷ /M,Active,3.7,20,CN(C)CCNC(=O)c1nc(NC(=O)c2cc(NC(=O)c3nc(NC=O)cn3CCCN)cn2C)cn1C
,> 24,10,2.4 ×10⁸ /M,Active,,24,CN(C)CCNC(=O)c1nc(NC(=O)c2cc(NC(=O)c3nc(NC=O)cn3C)cn2CCCN)cn1C
